# Source: US9623078B2, “Method for treating cardiac infarction using HMGB1 fragment” (GENOMIX CO., LTD, priority 2012, dated 2017)
# Columns and labels:
# [1] = system: IL-1β mRNA; assay: IL-1β mRNA level in myocardial tissue of myocardial infarction model (real-time PCR); type: in vivo, mouse; conditions: ratio to GAPDH mRNA level; N=4; negative control 6±1; P<0.05; day not stated in text (FIG. 1D: 7 and 56 days)
# Protocol: (§1) Bone marrow cells were collected from the thigh bone/lower leg bone of three-week-old mice (C57BL6-CAG-GFP transgenic mice), and the bone marrow cell suspension was administered ([…]) to the tail vein of six-week-old mice (C57BL6) after irradiation (10GY) to produce bone marrow chimeric mice. Sixty days after bone marrow transplantation, left fourth interspace thoracotomy was performed under general anesthesia in the supine position, and the proximal left anterior descending coronary artery was ligated to produce an extensive myocardial infarction model (left anterior descending coronary artery/circumflex occlusion model). In making the HMGB1 protein low molecular, a fragment peptide (1-44) of the HMGB1 protein was developed in consideration of retaining the activity of recruiting bone marrow mesenchymal stem cells. […] Regarding the number of bone marrow-derived mesenchymal stem cells accumulated in the tissue, the number of cells positive for both GFP and PDGFRα present in all areas of randomly-selected 5 sections were determined and the mean value was calculated. […] Real-time PCR was performed with the Gene Amp(R) PCR System 9700 (Life Technologies Japan) using the above-mentioned cDNA as a template, and the levels of TNFα and IL-1β mRNA were determined as a ratio to the GAPDH mRNA level. […]
# [2] = system: acute stage myocardial infarction mouse model; assay: Cardiac function by echocardiography in myocardial infarction model; type: in vivo
# Protocol: Bone marrow cells were collected from the thigh bone/lower leg bone of three-week-old mice (C57BL6-CAG-GFP transgenic mice), and the bone marrow cell suspension was administered ([…]) to the tail vein of six-week-old mice (C57BL6) after irradiation (10GY) to produce bone marrow chimeric mice. Sixty days after bone marrow transplantation, left fourth interspace thoracotomy was performed under general anesthesia in the supine position, and the proximal left anterior descending coronary artery was ligated to produce an extensive myocardial infarction model (left anterior descending coronary artery/circumflex occlusion model). In making the HMGB1 protein low molecular, a fragment peptide (1-44) of the HMGB1 protein was developed in consideration of retaining the activity of recruiting bone marrow mesenchymal stem cells. At 6, 24, 48, 72, and 96 hours after infarction creation, the HMGB1 protein fragment peptide (1-44) (5 μg/300 μl), or 300 μl of PBS (negative control group) was administered five times to the tail vain. Mice were euthanized by administration of excess ketamine and xylazine, and their hearts were collected. After the tissues were embedded in OCT compound, cryosections of 5 μm thickness were prepared. […] Regarding the number of bone marrow-derived mesenchymal stem cells accumulated in the tissue, the number of cells positive for both GFP and PDGFRα present in all areas of randomly-selected 5 sections were determined and the mean value was calculated. […] Real-time PCR was performed with the Gene Amp(R) PCR System 9700 (Life Technologies Japan) using the above-mentioned cDNA as a template, and the levels of TNFα and IL-1β mRNA were determined as a ratio to the GAPDH mRNA level. Improvement in the cardiac function was evaluated by measuring the left ventricular end-diastolic diameter (LVDd: Dd), left ventricular end-systolic diameter (LVDs: Ds), and left ventricular ejection fraction (LVEF: EF) using the Vivid 7 Echocardiography System and 12-MHZ Transducer (General Electric).
# [3] = system: TNFα mRNA; assay: TNFα mRNA level in myocardial tissue of myocardial infarction model (real-time PCR); type: in vivo, mouse; conditions: ratio to GAPDH mRNA level; N=4; negative control 11±3; P<0.05; day not stated in text (FIG. 1C: 7 and 56 days)
# Protocol: as §1
# [4] = system: PDGFRα-positive bone marrow mesenchymal stem cells; assay: Recruitment of PDGFRα-positive bone marrow-derived mesenchymal stem cells to myocardium in myocardial infarction model (GFP/PDGFRα immunofluorescence); type: in vivo, mouse; conditions: N=4, P<0.05
# Protocol: as §1
substance,measurement,setting,value
"HMGB1 protein fragment peptide (1-44): peptide consisting of amino acids at positions 1 to 44 of an HMGB1 protein (SEQ ID NO: 3), produced by peptide synthesis (MGKGDPKKPRGKMSSYAFFVQTCREEHKKKHPDASVNFSEFSKK; Synthesized peptide from an HMGB1 protein)","IL-1β mRNA level, non-infarction site",[1],2±1 GAPDH
same,left ventricular end-diastolic diameter (DD),"[2]; Day 56 after infarction, N=8, negative control (N=16) 6.3±0.2, P<0.05",5.8±0.2 mm
same,left ventricular ejection fraction (EF),"[2]; Day 56 after infarction, N=8, negative control (N=16) 20±4, P<0.05",26±4%
same,"aggravation of left ventricular systolic function, left ventricular enlargement, and left ventricular remodeling","[2]; myocardial infarction model, five-day administration",significantly suppressed
same,"TNFα mRNA level, non-infarction site",[3],4±2 GAPDH
same,"number of PDGFRα-positive bone marrow-derived mesenchymal cells, non-infarction site","[4]; day 7 post infarction creation, 5 μg/300 μl tail vein x5 (6, 24, 48, 72, 96 h), negative control 32±9",52±11 cells/mm^2
same,"recruitment of PDGFRα-positive bone marrow mesenchymal stem cells in all areas (infarction, border, non-infarction sites) vs. negative control",[4]; seven days after creating myocardial infarction,significantly recruited
